Key:
Assay type in all cases: ADME, organism-based
[1] = Oral bioavailability in Balb/c mouse at 1 mg/kg; settings: in vivo
[2] = Clearance in Balb/c mouse at 1 mg/kg, po and 0.1 mg/kg, iv; settings: in vivo
[3] = AUC in Balb/c mouse at 1 mg/kg, po; settings: in vivo
[4] = Plasma concentration in Balb/c mouse at 10 mg/kg to 100 mg/kg, po after 4 hrs

SMILES: C[C@H](c1ccccc1)N1c2cc(-n3c(=O)[nH]c4ncccc43)ccc2C(=O)NC1(C)C
- bioavailability [1]: 28%
- clearance [2]: 27.3 mL/min/kg
- AUC [3]: 172 ng·h/mL
- concentration at 4 h [4]: 2000 nM

SMILES: CC1(C)NC(=O)c2ccc(-n3c(=O)[nH]c4ncccc43)cc2N1Cc1ccccc1
- bioavailability [1]: 12%
- clearance [2]: 143 mL/min/kg
- AUC [3]: 16 ng·h/mL

SMILES: C[C@@H](c1ccccc1)N1c2cc(-n3c(=O)[nH]c4ncccc43)ccc2C(=O)NC1(C)C
- bioavailability [1]: 7%
- clearance [2]: 107 mL/min/kg
- AUC [3]: 11 ng·h/mL

From ChEMBL document CHEMBL3797131, “Discovery and optimization of 1,7-disubstituted-2,2-dimethyl-2,3-dihydroquinazolin-4(1H)-ones as potent and selective PKCθ inhibitors” (Bioorg Med Chem, 2016)
